Holding throughout (format): physicochemical
A short description of data set [1]: Kinetic solubility in water (HPLC). The conditions noted are these: 20 °C; for amount nearly dissolved in 0.5 mL of added water: 0.5 mL water; for amount nearly dissolved in 0.5 mL of added water / Approximate Solubility (mg/0.5 mL) / Approximate Solubility / Approximate Solubility (g/mL): 30 min; for Approximate Solubility (mg/0.5 mL) / Approximate Solubility / Approximate Solubility (g/mL) / Content of Salt in VF (mg) 30 min: water, HPLC; for Approximate Solubility / Approximate Solubility (g/mL): kinetic solubility. How it is done: The kinetic solubility of Form A epinephrine malonate salt and bitartrate salt was determined using the procedure described herein. The solid active pharmaceutical ingredient was allowed to equilibrate from 5 °C to ambient temperature for 1 h. Solids were weighed (0.76 g of malonate and 0.20 g of bitartrate) into 4-mL vials containing a magnetic polytetrafluoroethylene (PTFE) stir bar. Water (0.5 mL) was added and samples were stirred at 20 °C. Additional API was gradually added in small portions over 30 min until trace amount of residual solid was present. At 30 min, the content of the nearly dissolved sample was transferred to a volumetric flask (VF), diluted, subjected to HPLC analyses, and adjusted for initial volume of water used.
The HPLC analysis was conducted using an Agilent 1100 with a Phenomenx Gemini C18, 100×4.6 mm, 3.0 um column. The column temperature was 50 °C, wavelength 210 nm, and flow rate 1.2 mL/min. Mobile Phase A was 5:95 MeCN: Buffer and Mobile Phase B was 45:55 MeCN: Buffer.
The kinetic solubility of Form B was determined using the procedure described herein. The solid Form B was allowed to equilibrate from storage temperature (5 °C) to ambient temperature for 1 hour. Solids were weighed (0.025 g of Form B) into a 4-mL vial containing a magnetic PTFE stir bar. Water (0.5 mL) was added and the sample was stirred at 20 °C. Additional API was gradually added in small portions over 30 min until trace amount of residual solid was present. At 30 minutes, the content of the nearly dissolved sample was transferred to a volumetric flask (VF), diluted, subjected to HPLC analyses, and adjusted for initial volume of water used.

Data set [2] in a line: pKa of epinephrine malonate salt Form A (general description). The conditions noted are these: no method given.
A short description of data set [3]: Dynamic vapor sorption (DVS). Conditions: 25 °C, nitrogen carrier gas, 0-95% relative humidity. How it is done: Form A was subjected to DVS. DVS is a gravimetric technique that measures how quickly and how much of a solvent is absorbed by a sample such as a dry powder absorbing water. The test was conducted using a Surface Measurement Systems DVS Intrinsic Plus at a temperature of 25 °C and using nitrogen as a carrier gas. The relative humidity range spanned from 0-95% and the maximum equilibration time was 240 minutes. The relative humidity steps included 40-50-60-70-75-70-60-50-40-30-20-10-0-10-20-30-40-50-60-70-75-80-90-95-90-80-75-70-60-50-40-30-20-10-0%.
Form A was subjected to the increasing relative humidity until a change in mass occurred. Once a change in mass resulted, the relative humidity was lowered to determine stability of the resulting mass. The relative humidity was then increased again until another change in mass resulted. Once a change in mass resulted, the relative humidity was lowered to determine stability of the resulting mass.

The nature of data set [4]: Water solubility of epinephrine malonate salt (general description). Conditions: no method given.
Data set [5] in a line: Relative thermodynamic stability studies in EtOH, EtOH/water and IPA/water; solid-state form stability. Conditions: for water activity (aw) at which the form is most-stable: room temperature; for relative humidity at which the form is kinetically stable: solid state, Form B once formed, Form C (days). How it is done: Relative thermodynamic stability studies in EtOH (crystallization process solvent), EtOH/water and IPA/water were performed. […] The critical water activity for Forms A/B interconversion is between aw=0.4-0.55 (40-55% RH). The transition temperature (Tt) for the enantiotropically related Forms A/C is between RT-40 °C. […] Form C is kinetically stable in solid state (days) at <40% RH.

The nature of data set [6]: Stability profile of epinephrine malonate salt (general description). Conditions: 7, 14, 30, 60, 90, 120, or 150 days.
The mark [7] stands for this setting: listed as Epinephrine Malonate Form A.
Where [8] appears, read: relative thermodynamic stability.

Counter-ions that a name gives are not always drawn.

As for `CNC[C@H](O)c1ccc(O)c(O)c1` [Epinephrine Bitartrate, epinephrine bitartrate, reference compound], in data set [1] (listed as bitartrate salt), the “amount nearly dissolved in 0.5 mL of added water” value (from here on “amount nearly dissolved in 0.5 mL”) was 259 mg and the “Approximate Solubility (g/mL)” value is ~ 0.52 g/mL. Also, in data set [1], the “Approximate Solubility (mg/0.5 mL)” value is approximately 259 mg mg/0.5 mL, the “Approximate Solubility” value is approximately 520 mg/mL and the “Content of Salt in VF (mg) 30 min” value is reported as 259.45 mg.

For `CNC[C@H](O)c1ccc(O)c(O)c1` [Form A, epinephrine malonate], the pKa (commonly the negative logarithm of the acid dissociation constant) in data set [2] stood at 5.47. For the same compound, the “changes in mass during DVS” value in data set [3] is “Two changes in mass occurred”. Besides, the solubility (usually the dissolved amount per volume that the medium holds) in data set [4] (water) was not below 1140 mg/mL. Besides, in data set [1], the “amount nearly dissolved in 0.5 mL” value stood at 912 mg and the “Approximate Solubility (g/mL)” value was ~ 1.82 g/mL. In addition, in data set [1] (setting [7]), the “Approximate Solubility” value is approximately 1820 mg/mL, the “Approximate Solubility (mg/0.5 mL)” value was approximately 911 mg mg/0.5 mL and the “Content of Salt in VF (mg) 30 min” value turned out to be 911.53 mg. Moreover, in data set [5], the “critical relative humidity for Forms A/B interconversion” value was 40-55 % RH and the “critical water activity for Forms A/B interconversion (aw)” value is on record as 0.4-0.55. The “water activity (aw) at which the form is most-stable” value in data set [5] (setting [8]) was not above 0.4.

On to `CNC[C@H](O)c1ccc(O)c(O)c1` [Form B, epinephrine malonate], for which, in data set [1], the “amount nearly dissolved in 0.5 mL” value was 511 mg, the “Approximate Solubility (mg/0.5 mL)” value is reported as approximately 511 mg mg/0.5 mL, the “Approximate Solubility” value is 1000 mg/mL and the “Content of Salt in VF (mg) 30 min” value is recorded as 511 mg. Further, in data set [5], the “critical relative humidity for Forms A/B interconversion” value is listed as 40-55 % RH, the “critical water activity for Forms A/B interconversion (aw)” value is given as 0.4-0.55 and the “relative humidity at which the form is kinetically stable” value is 0-80 % RH. In addition, the “water activity (aw) at which the form is most-stable” value in data set [5] (setting [8]) is not below 0.55. Moreover, the “relative humidity for solid-state transition from Form A to Form B” value in data set [5] (solid-state) is given as not below 40 % RH. Further, the “formation of Form B in solid state” value in data set [5] (solid-state, >55% RH) is “forms relatively quickly (hours) at >55% RH”.

Turning to `CNC[C@H](O)c1ccc(O)c(O)c1` [Form C, epinephrine malonate], the “water activity (aw) at which the form is more stable at 40 °C” value in data set [5] (40 °C, relative thermodynamic stability) was determined as 0. The “relative humidity at which the form is kinetically stable” value in data set [5] is listed as less than 40 % RH.

Turning to `CNC[C@H](O)c1ccc(O)c(O)c1` [epinephrine malonate salt, epinephrine malonate], the “water solubility compared with other epinephrine salts (maleate, fumarate, hemi sulfate, bitartrate, hydrochloride)” value in data set [4] (crystalline form) was “substantially higher”. Further, the stability profile entry in data set [6] is “favorable stability profile”.

The values above are taken from patent publication US20260355132A1, “POLYMORPHIC FORMS OF EPINEPHRINE MALONATE” (Biothea Pharma, Inc., priority 2023, published 2026).
